# Biological target: HDAC4 (Homo sapiens, UniProt P56524)
# Experiment: HDAC fluorometric activity assay, HDAC4
# Conditions: tested at 40 μM, SAHA as reference
# Excerpt: A fluorogenic based assay[54] was used to validate the 40 candidate compounds.
# Chain of HDAC4 (P56524 whole entry): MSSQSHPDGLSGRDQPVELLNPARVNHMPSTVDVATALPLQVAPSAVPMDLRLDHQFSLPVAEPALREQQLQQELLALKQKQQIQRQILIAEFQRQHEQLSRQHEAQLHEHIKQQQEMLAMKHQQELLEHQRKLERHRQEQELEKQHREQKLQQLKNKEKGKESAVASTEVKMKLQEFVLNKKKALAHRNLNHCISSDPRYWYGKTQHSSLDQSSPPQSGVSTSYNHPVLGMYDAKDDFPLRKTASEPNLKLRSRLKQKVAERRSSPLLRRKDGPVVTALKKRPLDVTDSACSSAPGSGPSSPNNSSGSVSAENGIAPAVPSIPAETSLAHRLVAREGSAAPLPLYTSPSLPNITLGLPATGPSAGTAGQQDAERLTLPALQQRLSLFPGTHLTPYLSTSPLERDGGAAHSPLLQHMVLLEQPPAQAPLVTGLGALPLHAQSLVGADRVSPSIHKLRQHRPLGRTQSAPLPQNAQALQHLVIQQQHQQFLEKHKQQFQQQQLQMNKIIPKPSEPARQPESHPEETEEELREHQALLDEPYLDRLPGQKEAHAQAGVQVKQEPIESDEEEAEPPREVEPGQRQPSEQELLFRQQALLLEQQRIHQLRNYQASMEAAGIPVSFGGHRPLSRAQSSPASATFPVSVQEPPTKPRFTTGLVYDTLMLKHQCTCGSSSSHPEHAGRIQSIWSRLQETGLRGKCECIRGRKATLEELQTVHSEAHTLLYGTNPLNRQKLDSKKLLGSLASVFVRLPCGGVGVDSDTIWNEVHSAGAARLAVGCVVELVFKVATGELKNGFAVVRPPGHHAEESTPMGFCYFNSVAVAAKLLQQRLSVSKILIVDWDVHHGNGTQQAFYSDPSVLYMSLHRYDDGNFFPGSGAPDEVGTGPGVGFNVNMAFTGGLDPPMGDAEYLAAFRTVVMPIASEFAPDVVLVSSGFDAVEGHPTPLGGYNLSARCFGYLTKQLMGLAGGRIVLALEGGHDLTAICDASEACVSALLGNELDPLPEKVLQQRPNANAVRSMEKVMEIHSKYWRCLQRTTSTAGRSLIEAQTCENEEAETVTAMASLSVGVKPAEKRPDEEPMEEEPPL
structure (smiles),measurement,value
O=C(C=Cc1ccc(O)c(O)c1)c1ccc(O)c(O)c1O [Compound A93087],HDAC4 inhibitory activity in initial screen compared to SAHA,significantly higher inhibitory activities

# — article PMC5468338, “Novel Class IIa-Selective Histone Deacetylase Inhibitors Discovered Using an in Silico Virtual Screening Approach” (Scientific Reports, 2017)
